The values that follow come from paper PMC6290073, “Tropinone synthesis via an atypical polyketide synthase and P450-mediated cyclization” (Nature Communications, 2018).

Where two headings read alike, the source gives them in different places.

The Km is the concentration of substrate that gives half-maximal velocity. The Vmax is the rate approached at saturating substrate. A word on the kcat: it is the number of substrate molecules converted per active site and unit of time at saturation. The term kcat/Km denotes the second-order rate constant that governs catalysis at low substrate concentration.

The target in one series is T1, AbCYP82M3 (Atropa belladonna, UniProt A0A3G4RHY7).
T1 construct: gene CYP82M3
Conditions: 1 mM NADPH, pH 7.0, ionic strength 0.05, 20% glycerol, 30 °C.

Series [1] addresses T2, AbPYKS (Atropa belladonna, UniProt A0A3G4RHW3).
T2 construct: gene OGAS
Conditions: substrate inhibition constant, 25 mM potassium phosphate pH 8.0, 30 °C.

Series [2] concerns the target T2, AbPYKS. Conditions: apparent; 0.1 mM malonyl-CoA, 25 mM potassium phosphate pH 8.0, 30 °C.
In series [3] the test system is CC(C)(COP(=O)(O)OP(=O)(O)OC[C@H]1O[C@@H](n2cnc3c(N)ncnc32)[C@H](O)[C@@H]1OP(=O)(O)O)[C@@H](O)C(=O)NCCC(=O)NCCSC(=O)CC(=O)O. The series is described as follows: purified protein. Conditions: apparent, 0.05 mM N-methyl-Δ^1-pyrrolinium, 25 mM potassium phosphate pH 8.0, 30 °C.

T2 sequence (A0A3G4RHW3 1-392 limits assumed): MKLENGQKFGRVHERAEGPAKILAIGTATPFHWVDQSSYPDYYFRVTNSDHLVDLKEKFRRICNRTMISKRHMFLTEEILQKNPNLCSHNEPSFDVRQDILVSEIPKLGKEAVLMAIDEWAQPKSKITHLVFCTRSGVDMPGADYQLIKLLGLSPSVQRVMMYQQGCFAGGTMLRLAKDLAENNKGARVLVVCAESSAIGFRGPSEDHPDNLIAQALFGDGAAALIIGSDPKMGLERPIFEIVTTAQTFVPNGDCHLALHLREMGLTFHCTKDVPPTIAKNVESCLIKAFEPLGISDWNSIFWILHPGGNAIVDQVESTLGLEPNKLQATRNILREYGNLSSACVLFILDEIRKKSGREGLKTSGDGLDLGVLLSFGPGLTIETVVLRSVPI
T1 sequence (A0A3G4RHY7 1-519): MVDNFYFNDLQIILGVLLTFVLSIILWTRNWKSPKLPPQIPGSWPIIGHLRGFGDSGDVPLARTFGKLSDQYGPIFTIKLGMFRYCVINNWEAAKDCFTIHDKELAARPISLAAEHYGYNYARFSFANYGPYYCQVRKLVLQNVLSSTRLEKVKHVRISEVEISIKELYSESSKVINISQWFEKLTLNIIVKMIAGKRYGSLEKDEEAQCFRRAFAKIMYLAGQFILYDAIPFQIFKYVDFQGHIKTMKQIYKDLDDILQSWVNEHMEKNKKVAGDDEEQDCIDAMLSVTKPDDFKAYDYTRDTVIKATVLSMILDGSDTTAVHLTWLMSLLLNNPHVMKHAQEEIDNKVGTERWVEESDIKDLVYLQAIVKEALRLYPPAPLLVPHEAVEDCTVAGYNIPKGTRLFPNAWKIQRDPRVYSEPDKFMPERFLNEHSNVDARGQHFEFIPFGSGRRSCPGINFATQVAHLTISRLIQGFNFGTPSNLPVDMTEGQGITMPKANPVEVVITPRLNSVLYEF

As to `CN1CCCC1CC(=O)CC(=O)O` (racemic) [compound 5, 4-(1-methyl-2-pyrrolidinyl)-3-oxobutanoic acid], the Km on AbCYP82M3 was determined as 631 ± 26 µM.
As for `CC(C)(COP(=O)(O)OP(=O)(O)OC[C@H]1O[C@@H](n2cnc3c(N)ncnc32)[C@H](O)[C@@H]1OP(=O)(O)O)[C@@H](O)C(=O)NCCC(=O)NCCSC(=O)CC(=O)O` [Malonyl-CoA], the “K i /” value on AbPYKS [1] (0.05 mM N-methyl-Δ^1-pyrrolinium) is recorded as 280 ± 0.9 µM.
On to `C[N+]1=CCCC1` [compound 4, N-methyl-Δ^1-pyrrolinium], for which the “K i /” value at AbPYKS [1] (0.1 mM malonyl-CoA) is 103 ± 16 µM. In addition, the Km at AbPYKS [2] is 10 ± 0.6 µM.
For the compound AbPYKS (Atropa belladonna), in series [3], the Km was 12 ± 1 µM, the Vmax turned out to be 13.8 µmol/min/mg, the kcat came to 10 ± 0.1 s⁻¹ and the kcat/Km worked out at 848000 ± 90000 M⁻¹ s⁻¹.
